{
  "source": "patent US20110124787A1",
  "about": "“RUBBER COMPOSITION” (BRIDGESTONE CORPORATION, priority 2008, published 2011)",
  "data": [
    {"units": {"melting point": "°C"}, "values": [
      {"compound": "CN(Sc1nc2ccccc2s1)C(C)(C)C", "note": "[N-methyl-N-t-butylbenzothiazole-2-sulfenamide]", "melting point": "56 to 58"},
      {"compound": "CCN(Sc1nc2ccccc2s1)C(C)(C)C", "note": "[N-ethyl-N-t-butylbenzothiazole-2-sulfenamide]", "melting point": "60 to 61"},
      {"compound": "CCCCN(Sc1nc2ccccc2s1)C(C)(C)C", "note": "[N-n-butyl-N-t-butylbenzothiazole-2-sulfenamide]", "melting point": "55 to 56"}
    ]}
  ]
}
